# Reference: patent US10174013B2, “Benzimidazole derivatives as kinase inhibitors” (SELVITA S.A., priority 2012, dated 2019)
# Like-named read-outs stand apart in the source and are kept apart here.
# Assays:
# Pim-3 = Pim-3 (Homo sapiens (Human), UniProt Q86V86); assay: ADP-Glo Kinase Assay, Pim-3; assay type: biochemical; settings: 1 μM compound; for inhibition at 1 µM: read-out: Pim-3 % INH (1 μM)
# Outline: (§1)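 ADP-Glo luminescent ADP detection of human kinase activity in 5 mM MOPS pH 7.5, 5 mM MgCl2, 0.4 mM EDTA, 1.5 mM DTT. ATP at each kinase's apparent Km; compounds diluted to 1000 nM in assay buffer. Percent inhibition from normalised luminescence.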
# HEL92 cells = assay: Growth inhibition, MTS assay, HEL92; assay type: cell-based, Human; settings: MTS cell viability, read-out: HEL92 ED50
# MV4-11 cells = assay: Growth inhibition, MTS assay, MV4-11; assay type: cell-based, Human; settings: MTS cell viability, read-out: MV4-11 ED50
# CDK2/E = CDK2/E (Homo sapiens (Human), UniProt P24941); assay: ADP-Glo Kinase Assay, CDK2/E; assay type: biochemical; settings: 1 μM compound; for inhibition at 1 µM: read-out: CDK2/E % INH (1 μM)
# Outline: as §1
# Pim-1 = Pim-1 (Homo sapiens (Human), UniProt P11309); assay: ADP-Glo Kinase Assay, Pim-1; assay type: biochemical; settings: 1 μM compound; for inhibition at 1 µM: read-out: Pim-1 % INH (1 μM)
# Sequence of Pim-1 (P11309 whole entry): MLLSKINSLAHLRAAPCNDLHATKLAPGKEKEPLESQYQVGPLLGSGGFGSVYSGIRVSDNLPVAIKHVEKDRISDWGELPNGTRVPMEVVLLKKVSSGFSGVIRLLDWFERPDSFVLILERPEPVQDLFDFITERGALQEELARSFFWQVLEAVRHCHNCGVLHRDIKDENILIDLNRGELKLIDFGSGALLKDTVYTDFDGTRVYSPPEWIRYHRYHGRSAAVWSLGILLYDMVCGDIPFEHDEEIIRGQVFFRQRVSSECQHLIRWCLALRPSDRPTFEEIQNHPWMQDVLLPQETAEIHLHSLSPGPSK
# Outline: as §1
# Pim-2 = Pim-2 (Homo sapiens (Human), UniProt Q9P1W9); assay: ADP-Glo Kinase Assay, Pim-2; assay type: biochemical; settings: 1 μM compound; for inhibition at 1 µM: read-out: Pim-2 % INH (1 μM)
# Sequence of Pim-2 (Q9P1W9 whole entry): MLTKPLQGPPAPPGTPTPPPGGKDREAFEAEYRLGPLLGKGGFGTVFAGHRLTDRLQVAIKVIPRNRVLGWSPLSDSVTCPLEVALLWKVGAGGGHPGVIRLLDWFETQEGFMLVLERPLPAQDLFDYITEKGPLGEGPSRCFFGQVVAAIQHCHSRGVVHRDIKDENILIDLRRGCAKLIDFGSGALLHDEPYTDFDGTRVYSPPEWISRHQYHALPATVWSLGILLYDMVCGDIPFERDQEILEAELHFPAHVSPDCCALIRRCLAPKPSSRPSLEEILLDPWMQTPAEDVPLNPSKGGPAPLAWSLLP
# Outline: as §1
# hERG potassium channel = hERG potassium channel (Homo sapiens (Human), UniProt Q12809); assay: hERG automated patch clamp assay (QPatch HT)
# Sequence of hERG potassium channel (Q12809 whole entry): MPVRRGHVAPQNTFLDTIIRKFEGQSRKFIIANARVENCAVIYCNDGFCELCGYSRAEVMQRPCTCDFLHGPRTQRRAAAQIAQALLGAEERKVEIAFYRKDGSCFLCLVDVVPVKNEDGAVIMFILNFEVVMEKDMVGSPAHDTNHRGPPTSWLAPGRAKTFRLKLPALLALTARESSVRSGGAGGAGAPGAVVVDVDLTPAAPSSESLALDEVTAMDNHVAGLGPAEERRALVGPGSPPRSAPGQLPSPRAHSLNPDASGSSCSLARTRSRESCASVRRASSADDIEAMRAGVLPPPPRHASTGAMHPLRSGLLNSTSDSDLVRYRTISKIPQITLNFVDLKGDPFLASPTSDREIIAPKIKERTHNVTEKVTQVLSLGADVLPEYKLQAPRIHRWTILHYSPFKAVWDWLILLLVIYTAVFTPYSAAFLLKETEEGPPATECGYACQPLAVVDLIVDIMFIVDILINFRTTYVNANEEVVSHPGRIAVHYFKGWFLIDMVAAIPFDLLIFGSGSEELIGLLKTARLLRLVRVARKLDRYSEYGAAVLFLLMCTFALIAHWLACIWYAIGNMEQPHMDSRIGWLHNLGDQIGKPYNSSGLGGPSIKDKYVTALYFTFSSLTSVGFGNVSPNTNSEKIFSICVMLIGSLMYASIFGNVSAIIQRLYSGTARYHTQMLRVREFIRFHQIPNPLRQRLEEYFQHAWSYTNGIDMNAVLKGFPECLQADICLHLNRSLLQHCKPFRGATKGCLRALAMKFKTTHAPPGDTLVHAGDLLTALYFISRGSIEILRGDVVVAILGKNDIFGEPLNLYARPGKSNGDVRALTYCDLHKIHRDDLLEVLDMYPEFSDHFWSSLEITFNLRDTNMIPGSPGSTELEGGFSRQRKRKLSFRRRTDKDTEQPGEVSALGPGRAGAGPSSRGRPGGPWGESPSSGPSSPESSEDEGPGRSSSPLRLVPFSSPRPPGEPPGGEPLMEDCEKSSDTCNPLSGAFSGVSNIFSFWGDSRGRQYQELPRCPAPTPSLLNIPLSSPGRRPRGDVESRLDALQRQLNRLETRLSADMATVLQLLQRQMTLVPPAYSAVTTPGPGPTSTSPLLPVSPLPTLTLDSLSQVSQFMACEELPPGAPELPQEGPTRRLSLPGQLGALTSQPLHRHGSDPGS
# Description: The hERG (human ether-A-go-go-related gene) channel corresponds to an important anti-target for potential new drugs since its inhibition may lead to sudden death. In order to establish whether the compounds of the present invention act on hERG, the following experiment was carried out.
# The in vitro effects of the compounds indicated in Table 5 on the hERG potassium channel current (a surrogate for Iκr, the rapidly activating, delayed rectifier cardiac potassium current) expressed in mammalian cells were evaluated at room temperature using the QPatch HT® (Sophion Bioscience A/S, Denmark), an automatic parallel patch clamp system. Each compound indicated in Table 5 was evaluated at 0.1, 1, 3, 10 and 30 μM with each concentration tested in a minimum of two cells (n≥2). The duration of exposure to each compound concentration was 3 minutes.
# HepG2 cells = assay: Growth inhibition, MTS assay, HepG2; assay type: cell-based, Human; settings: MTS cell viability, read-out: HepG2 ED50
# CYP3A4 = CYP3A4 (Homo sapiens (Human), UniProt P08684); assay: Cytochrome P450 inhibition, fluorescence, CYP3A4; assay type: in vitro ADME; settings: recombinant CYP3A4, fluorescence detection; read-out: CYP inhibition (CYP 3A4 screening, IC50 class)
# Sequence of CYP3A4 (P08684 whole entry, canonical isoform): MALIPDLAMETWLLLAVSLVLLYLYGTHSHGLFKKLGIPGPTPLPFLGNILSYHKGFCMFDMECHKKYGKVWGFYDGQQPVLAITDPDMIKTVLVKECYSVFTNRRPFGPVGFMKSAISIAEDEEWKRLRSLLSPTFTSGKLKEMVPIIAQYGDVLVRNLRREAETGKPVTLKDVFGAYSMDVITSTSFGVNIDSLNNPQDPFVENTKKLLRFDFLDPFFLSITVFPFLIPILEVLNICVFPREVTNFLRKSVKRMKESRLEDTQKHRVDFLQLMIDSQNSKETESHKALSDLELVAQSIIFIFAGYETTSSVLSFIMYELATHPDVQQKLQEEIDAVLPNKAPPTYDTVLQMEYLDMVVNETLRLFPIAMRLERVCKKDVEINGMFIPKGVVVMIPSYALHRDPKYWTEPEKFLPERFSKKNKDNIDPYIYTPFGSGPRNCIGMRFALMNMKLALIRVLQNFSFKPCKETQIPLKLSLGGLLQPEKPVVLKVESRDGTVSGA
# Description: The assays for cytochrome P450 inhibition facilitate the identification of drug candidates with lower potential for drug-drug interactions (weak enzymes inhibitors). In vitro experiments were conducted to determine whether a drug inhibits a specific CYP enzyme. The experiments comprised the incubation of the drug with probe substrates for the CYP enzymes, wherein the following recombinant cytochrome P450 isoforms were employed: CYP1A2, CYP2C8, CYP2C9, CYP2C19, CYP2D6 and CYP3A4, together with various probe substrates enabling fluorescence detection. The protocol uses a single substrate concentration near the apparent Km and multiple compound concentrations.
# The assay was performed in 96-well microtiter plates. The row designations were A through H and the column designations were 1 through 12. […] Each compound (see Table 6 for tested compounds) was added to the wells in column 1 and serially diluted to the wells in column 8. Wells 9 and 10 were control wells which contained no test compound (therefore no inhibition-full signal is detected.) The wells in columns 11 and 12 were blanks, where STOP solution was added prior to the addition of the enzyme/substrate mix to the NADPH regenerating system (the only signal present in these wells is background noise.) The assay was conducted in a final volume of 0.2 ml per well.
# The stock solutions of the tested compounds were prepared in DMSO at 10 mM concentration. […] After mixing the compounds with solution containing NADPH-cofactors, the mixed plate was preincubated in a 37° C. incubator for at least 10 minutes; next, the fluorescence of compounds using recommended excitation/emission filters was measured in order to eliminate false results originating from autofluorescence of the compounds. In the following step, the enzyme/substrate mix was added to columns 1 through 10 and the plates were incubated at 37° C. for specific times depending on the CYP tested (incubation times ranged from 30 to 45 minutes). After adding STOP SOLUTION to all wells and respective enzyme/substrate mix to the wells in columns 11 and 12, the plate was scanned with a fluorescent plate scanner. The excitation/emission filters used for the specific assays are described in the GenTest Screening Kit instruction manual.
# Jeko-1 cells = assay: Growth inhibition, MTS assay, Jeko-1; assay type: cell-based, Human; settings: 72 hours, MTS cell viability, read-out: Jeko-1 ED50
# SW-480 cells = assay: Growth inhibition, MTS assay, SW-480; assay type: cell-based, Human; settings: 72 hours, MTS cell viability, read-out: SW-480 ED50
# FLT3wt = FLT3wt (Homo sapiens (Human), UniProt P36888); assay: ADP-Glo Kinase Assay, Flt3 wt; assay type: biochemical; settings: 1 μM compound; for inhibition at 1 µM: read-out: Flt3wt % INH (1 μM)
# Sequence of FLT3wt (P36888 27-993): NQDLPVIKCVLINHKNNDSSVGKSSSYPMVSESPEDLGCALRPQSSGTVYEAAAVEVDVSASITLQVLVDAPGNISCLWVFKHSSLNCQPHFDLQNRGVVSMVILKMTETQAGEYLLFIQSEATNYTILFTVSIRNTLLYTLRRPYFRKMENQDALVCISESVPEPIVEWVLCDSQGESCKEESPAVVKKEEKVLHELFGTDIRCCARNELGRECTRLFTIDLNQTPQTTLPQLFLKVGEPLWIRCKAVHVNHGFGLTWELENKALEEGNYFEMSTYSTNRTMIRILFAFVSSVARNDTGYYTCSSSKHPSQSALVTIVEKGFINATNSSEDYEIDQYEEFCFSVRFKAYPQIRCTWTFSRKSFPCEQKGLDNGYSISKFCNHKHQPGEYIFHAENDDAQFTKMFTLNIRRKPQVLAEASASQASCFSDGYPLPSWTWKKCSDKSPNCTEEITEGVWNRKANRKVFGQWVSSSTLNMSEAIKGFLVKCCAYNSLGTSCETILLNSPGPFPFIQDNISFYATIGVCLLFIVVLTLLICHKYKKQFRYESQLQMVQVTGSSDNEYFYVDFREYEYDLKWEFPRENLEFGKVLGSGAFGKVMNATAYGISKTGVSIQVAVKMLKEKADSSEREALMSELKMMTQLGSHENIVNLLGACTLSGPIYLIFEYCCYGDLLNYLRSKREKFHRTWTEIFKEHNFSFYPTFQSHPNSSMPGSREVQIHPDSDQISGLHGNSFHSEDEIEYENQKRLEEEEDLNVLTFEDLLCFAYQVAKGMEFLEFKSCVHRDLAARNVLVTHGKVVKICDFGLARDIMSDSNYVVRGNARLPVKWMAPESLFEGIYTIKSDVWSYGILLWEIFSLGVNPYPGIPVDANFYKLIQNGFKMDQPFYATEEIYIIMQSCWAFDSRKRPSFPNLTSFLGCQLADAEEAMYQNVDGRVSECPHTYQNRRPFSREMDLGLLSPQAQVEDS
# Outline: as §1
# DYRK1 = DYRK1 (Homo sapiens (Human), UniProt Q13627); assay: ADP-Glo Kinase Assay, DYRK1; assay type: biochemical; settings: 1 μM compound; for inhibition at 1 µM: read-out: DYRK1A % INH (1 μM)
# Outline: as §1
# MOLM16 cells = assay: Growth inhibition, MTS assay, MOLM16; assay type: cell-based, Human; settings: Homo sapiens, MOLM16, 72 h, MTS cell viability, read-out: MOLM 16 ED50
# Text: (§2) The following cell lines, were obtained and used in tests as outlined below: • Human myelomonocytic, biphenotypic leukemia MV4-11 cells (harboring a Flt3-ITD mutation); • Human Acute Myeloid Leukemia MOLM16 cells; • Human Acute Myeloid Leukemia MOLM13 cells (harboring a Flt3-ITD mutation); • Human Myeloid Leukemia KG-1 cells; • Human erythroleukemia HEL92 cells; • Human mantle cell lymphoma Jeko-1 cells; • Human hepatocellular carcinoma HepG2 cells; and • Human colon adenocarcinoma SW-480 cells.
# (§3) The assays were carried out according to the following protocol, which is described as an example for the MV4-11 cells:
# (§4) Ten thousand MV4-11 cells were inoculated into each well of a 96-well microplate (manufactured by Corning Corp.) using Iscove's MDM medium (culture medium) containing 10% fetal calf serum (FCS). The same day, a dimethyl sulfoxide (DMSO) solution of each test compound prepared in a concentration of 10 mmol/L was further diluted with DMSO to the desired concentrations (0.1, 0.5, 1, 2.5, 5 and 10 micromol/L), and the diluted solution was added to each well. The individual wells were further cultured in 5% carbon dioxide at 37° C. for 72 hours. […] Briefly, 10 μl MTS (3-(4,5-Dimethyl-2-thiazolyl)-5-(carboxymethoxyphenyl)-2-(4-sulfophenyl)-2H-tetrazolium was added to each well, and culturing was performed in 5% carbon dioxide at 37° C. for 2 hours. After this incubation and using a microplate spectrophotometer (Synergy 2 multi-mode microplate reader (BioTek)), the absorbance of each well was measured at 490 nm. The value for cells not incubated with a test compound was designated as 100%. By comparing these values with the absorbance difference obtained at the well in which each test compound was added, the cell viability (% viability) after treatment with the test compound was calculated.
# MOLM13 cells = assay: Growth inhibition, MTS assay, MOLM13; assay type: cell-based, Human; settings: 72 hours, MTS cell viability, read-out: MOLM 13 ED50
# Text: as §2, §3, §4
# KG-1 cells = assay: Growth inhibition, MTS assay, KG-1; assay type: cell-based, Human; settings: 72 hours, MTS cell viability
# Text: as §2, §3, §4
Pim-3 % INH (1 μM) (Pim-3),IC50 (MV4-11 cells; 72 hours),CDK2/E % INH (1 μM) (CDK2/E),Pim-1 % INH (1 μM) (Pim-1),Pim-2 % INH (1 μM) (Pim-2),IC50 (HepG2 cells; 72 hours),IC50 (CYP3A4),Flt3wt % INH (1 μM) (FLT3wt),DYRK1A % INH (1 μM) (DYRK1),IC50 (MOLM16 cells),inhibition at 1 µM (Pim-3),"IC50 (MV4-11 cells; Homo sapiens, MV4-11, 72 h)",inhibition at 1 µM (CDK2/E),inhibition at 1 µM (Pim-1),inhibition at 1 µM (Pim-2),"IC50 (HepG2 cells; Homo sapiens, HepG2, 72 h)",inhibition at 1 µM (FLT3wt),inhibition at 1 µM (DYRK1),Structure (SMILES),IC50 (HEL92 cells; 72 hours),"IC50 (HEL92 cells; Homo sapiens, 72 h)",also measured
,,,,,,3300 to 10000 nM,,,,76%,3200 nM,< 5%,> 95%,31%,5100 nM,< 5%,17%,"COC(CN)CNc1nc2c([N+](=O)[O-])c(Br)c(Br)cc2n1C(C)C (stereo not drawn) [Example 22AB, N-(3-amino-2-methoxypropyl)-5,6-dibromo-4-nitro-1-(propan-2-yl)-1H-1,3-benzodiazol-2-amine]",,,IC50 (hERG potassium channel): 2020 nM
,,,,,,,,,320 nM,,800 nM,47%,> 95%,54%,600 nM,8%,23%,CCn1c(N2CCC(N)CC2)nc2c(C#N)c(Br)c(Br)cc21 [Example 1DS],,5800 nM,"IC50 (MOLM13 cells; Homo sapiens, MOLM-13): 9900 nM; KG-1 ED50 (KG-1 cells): 200 nM; IC50 (Jeko-1 cells; Homo sapiens, JeKo-1): 1400 nM"
,,,,,,3300 to 10000 nM,,,,> 95%,6900 nM,6%,86%,22%,1100 nM,< 5%,11%,CCn1c(NC2CCCNCC2)nc2c([N+](=O)[O-])c(Br)c(Br)cc21 (stereo not drawn) [Example 1Q],,8200 nM,"IC50 (Jeko-1 cells; Homo sapiens, JeKo-1): 5400 nM; IC50 (SW-480 cells; Homo sapiens, SW480): 5300 nM"
,,,,,,,,,100 nM,86%,900 nM,< 5%,> 95%,53%,1400 nM,< 5%,38%,CCn1c(N2CCC[C@H](N)C2)nc2c(C#N)c(Br)c(Br)cc21 [Example 1DQ],,7600 nM,"IC50 (MOLM13 cells; Homo sapiens, MOLM-13): 2800 nM; KG-1 ED50 (KG-1 cells): 500 nM; IC50 (Jeko-1 cells; Homo sapiens, JeKo-1): 1600 nM"
,,,,,,,,,1100 nM,62%,2300 nM,7%,> 95%,18%,,< 5%,20%,CC(C)n1c(NC2CCC(N)CC2)nc2c(C#N)c(Br)c(Br)cc21 (stereo not drawn) [Example 1DY],,,"IC50 (MOLM13 cells; Homo sapiens, MOLM-13): 6400 nM; KG-1 ED50 (KG-1 cells): 1900 nM; IC50 (Jeko-1 cells; Homo sapiens, JeKo-1): 2800 nM"

# Second part, the compound before the results:
Structure (SMILES),Pim-3 % INH (1 μM) (Pim-3),IC50 (MV4-11 cells; 72 hours),CDK2/E % INH (1 μM) (CDK2/E),Pim-1 % INH (1 μM) (Pim-1),Pim-2 % INH (1 μM) (Pim-2),IC50 (HepG2 cells; 72 hours),IC50 (CYP3A4),Flt3wt % INH (1 μM) (FLT3wt),DYRK1A % INH (1 μM) (DYRK1),IC50 (MOLM16 cells),inhibition at 1 µM (Pim-3),"IC50 (MV4-11 cells; Homo sapiens, MV4-11, 72 h)",inhibition at 1 µM (CDK2/E),inhibition at 1 µM (Pim-1),inhibition at 1 µM (Pim-2),"IC50 (HepG2 cells; Homo sapiens, HepG2, 72 h)",inhibition at 1 µM (FLT3wt),inhibition at 1 µM (DYRK1),IC50 (HEL92 cells; 72 hours),"IC50 (HEL92 cells; Homo sapiens, 72 h)",also measured
CCn1c(N[C@H]2CCCNC2)nc2c([N+](=O)[O-])c(Br)c(Br)cc21 [Example 1AA],>95%,1300 nM,<5%,>95%,53%,2100 nM,1100 to 3300 nM,11%,40%,,,,,,,,,,4600 nM,,IC50 (hERG potassium channel): 2270 nM; IC50 (Jeko-1 cells): 1800 nM; IC50 (SW-480 cells): 5500 nM
CC(C)n1c(NC2CCNC2)nc2c(C#N)c(Br)c(Br)cc21 (stereo not drawn) [Example 1BK],92%,800 nM,<5%,>95%,63%,5200 nM,> 10000 nM,20%,48%,60 nM,,,,,,,,,,,
CC(C)n1c(N2CCNCC2)nc2c(C#N)c(Br)c(Br)cc21 [Example 1BL],,,,,,,,,,,81%,400 nM,7%,> 95%,33%,1400 nM,54%,75%,,2400 nM,"IC50 (MOLM13 cells; Homo sapiens, MOLM-13): 1000 nM"
CC(C)n1c(N2CC[C@@H](N)C2)nc2c([N+](=O)[O-])c(Br)c(Br)cc21 [Example 1AY],>95%,500 nM,,>95%,89%,1500 nM,,60%,87%,,,,,,,,,,1900 nM,,IC50 (MOLM13 cells): 900 nM
CC(C)n1c(N[C@H]2CCNC2)nc2c([N+](=O)[O-])c(Br)c(Br)cc21 [Example 1BD],88%,700 nM,<5%,>95%,65%,3300 nM,> 10000 nM,28%,53%,,,,,,,,,,5500 nM,,IC50 (MOLM13 cells): 2100 nM; IC50 (hERG potassium channel): 4340 nM; IC50 (Jeko-1 cells): 1600 nM
COCCn1c(N2CCNCC2)nc2c([N+](=O)[O-])c(Br)c(Br)cc21 [Example 1BB],65%,700 nM,29%,>95%,12%,2000 nM,,33%,61%,,,,,,,,,,5400 nM,,IC50 (MOLM13 cells): 3000 nM
